The subject of test [1] is mPB CD34+ cells and CB CD34+ cells. Nature of the test: Colony-Forming Units in Culture (CFU-C) Assay. It counts as cell-based, human. The protocol:
Colony-Forming Units in Culture (CFU-C) Assay: Mononuclear cells at 1000 per mL for cord blood 5 week and mPB 3 week culture and 100 cells per mL for C δ 3 week and mPB 1 week culture were added to MethoCult SF H4436, serum-free methylcellulose medium containing methylcellulose in Iscove's MDM, bovine serum albumin, 2-mercaptoethanol, L-glutamine, human transferring (iron saturated), recombinant human insulin, and recombinant human cytokines: stem cell factor, GM-CSF, IL-3, IL-6, G-CSF, and erythropoietin (StemCell Technologies). The MethoCult is supplemented with the following human recombinant cytokines: thrombopoietin, and Flt-3 ligand (R&D Systems), each at a final concentration of 50 ng/mL. After stirring, the mixture is divided into three 35-mm dishes. The dishes are incubated for 14 days at 37° C. in a humidified atmosphere of 5% CO2 in air. At the end of the incubation period, myeloid and erythroid colonies are counted under an inverted microscope at 40× magnification. CFU-C content of the expansion culture is calculated as follows: number of scored colonies per three dishes×total mononuclear cell number/input cell number. Up to one week, total mononuclear cells are determined by multiplying the number of cells per milliliter by the culture volume. From week 1 and on, the number of passages is also taken into account. Cultures treated with 4-(2-(2-(benzo[b]thiophen-3-yl)-9-isopropyl-9H-purin-6-ylamino)ethyl)phenol (compound 1, table 1; example 1) at a concentration of 1 micromolar, generated a greater than 10-fold increase in the number of colony forming cells after 21 days of culture of mPB CD34+ cells compared to vehicle. […] Cells treated with a 4-(2-(2-(benzo[b]thiophen-3-yl)-9-isopropyl-9H-purin-6-ylamino)ethyl)phenol (compound 1, table 1; example 1) generated more mixed colonies associated with a >10-fold increase in erythrocyte colonies, a >10-fold increase in granulocyte/macrophage colonies, and a >10-fold increase in macrophage colonies.

The next test concerns CB CD34+ cells. The test is described as follows: Determination of CD34+ cell subsets by FACS. It counts as cell-based, human. Here is the method:
Surface Antigen Analysis: The cells are washed with staining media (Hanks balanced salt solution containing FBS (2%) and EDTA (2 mM)) and stained (at 4° C. for 30 minutes) with indicated primary conjugated antibodies. The cells are washed in the previously described buffer and analyzed using a BD LSR II flow cytometer (Becton Dickinson, San Jose, Calif.). The cells are passed at a rate of up to 1000 cells/second using 488-nm argon and 633-nm HeNe laser beams as the light source for excitation. Emission of 10^4 cells is measured using logarithmic amplification and analyzed using FlowJo software (TreeStar Inc. Ashland, Oreg.). Cells stained with primary conjugated isotype control antibodies are used to determine background fluorescence.
Determination of CD34^+ cell subsets: The percentages of CD34^+ cell subsets are determined from aliquots of the cell culture. Cells were stained with APC anti-Thy1.1, PerCP anti-CD34, PECy7 anti CD45RA, FITC anti CD38, and PE anti-CD133 for determination of CD34^+Thy1.1^+, CD34^+CD45RA^−, CD34^+CD38^−, CD133^+CD38^− and CD34^+CD133^+ cells. Antibodies to CD34, CD38, Thy1.1 and CD45RA were purchased from Becton Dickinson and antibodies to CD133 were purchased Miltenyi Biotec. FACS analysis results of these subsets are given as percentage of the total population. The absolute number of each population of cells in the culture is calculated from the total number of cells multiplied by the percentage of each population. Starting with CB CD34+ cell, after five weeks the total cell number in the cultures increased on average greater than 2-fold in the 4-(2-(2-(benzo[b]thiophen-3-yl)-9-isopropyl-9H-purin-6-ylamino)ethyl)phenol (compound 1, table 1; example 1) 1 micromolar treated cells compared to control cultures. More importantly, >50% of 4-(2-(2-(benzo[b]thiophen-3-yl)-9-isopropyl-9H-purin-6-ylamino)ethyl)phenol (compound 1, table 1; example 1) cultured cells were CD34^+ compared to <10% of vehicle cultured cells resulting in a greater than 10-fold expansion of CD34^+ cells compared to control and a greater than 10.000-fold expansion compared to input cells. In addition, the presence of 1 micromolar 4-(2-(2-(benzo[b]thiophen-3-yl)-9-isopropyl-9H-purin-6-ylamino)ethyl)phenol (compound 1, table 1; example 1) increased both the percentage and total numbers of the CD34^+ subpopulations, CD34^+CD45RA^−, CD34^+CD38^−, CD133^+CD38^−, and CD34^+CD133^+ resulting in a net expansion of greater than 30-fold for each subset.
In general terms: In flow cytometry, cells or beads pass a laser one at a time.

This is an account of results in patent US9580426B2, “Compounds that expand hematopoietic stem cells” (Novartis AG, priority 2008, dated 2017).

In the case of `CC(C)n1cnc2c(NCCc3ccc(O)cc3)nc(-c3csc4ccccc34)nc21` [Example 1, 4-(2-(2-(benzo[b]thiophen-3-yl)-9-isopropyl-9H-purin-6-ylamino)ethyl)phenol], the “increase in colony forming units compared to control” value in test [1] (1 micromolar, 1x10^3 CB CD34+ cells, 5 week culture) was “greater than 10 fold”. In test [1] (1 micromolar, after 21 days of culture of mPB CD34+ cells), the “increase in the number of colony forming cells compared to vehicle” value was “greater than 10 fold”. The mixed granulocyte/erythrocyte/monocyte/macrophage colonies entry in test [1] (not observed in colonies derived from untreated cultures) is “give rise mixed granulocyte/erythrocyte/monocyte/macrophage colonies”. For the same compound, in test [1] (treated cells vs untreated), the “increase in erythrocyte colonies” value is on record as “greater than 10 fold”, the “increase in granulocyte/macrophage colonies” value is given as “greater than 10 fold” and the “increase in macrophage colonies” value is recorded as “greater than 10 fold”. Also, in the test with CB CD34+ cells (1 micromolar), the “net expansion of each subset CD34+CD45RA-, CD34+CD38-, CD133+CD38-, CD34+CD133+” value is “greater than 30 fold”. Moreover, in the test on CB CD34+ cells (1 micromolar, after five weeks), the “increase of total cell number compared to control cultures” value is listed as “greater than 2 fold”. Also, in the test on CB CD34+ cells (five weeks), the “expansion of CD34+ cells compared to control” value was “greater than 10 fold” and the “expansion of CD34+ cells compared to input cells” value is recorded as “greater than 10.000 fold”. Further, the “percentage of cultured cells that were CD34+” value in the test with CB CD34+ cells (five weeks, vehicle <10%) was more than 50%.
